Source: patent publication US20080206149A1, “METHOD, DYE AND MEDICAMENT FOR STAINING THE INTERNAL LIMITING MEMBRANE, EPIRETINAL MEMBRANE, THE VITREOUS AND/OR THE CAPSULE OF AN EYE” (LUDWIG-MAXIMILIANS-UNIVERSITAT MUNCHEN, priority 2005, published 2008)

Assays:
vitreous = assay: Vitrectomy for retinal detachment (Example 3); type: in vivo, humans
Text: This study was approved by the local ethics committee and Institutional Review Board (IRB) and written informed consent was obtained from all patients. Six consecutive patients with idiopathic macular hole, 3 males and 3 females with a mean age of 68 were included. Holes were graded as stage 2 (n=3), stage 3 (n=2) and stage 4 (n=1). The dye was also used in four patients with retinal detachments, 2 females and 2 males with a mean age of 57 years.
Pre- and postoperatively, all patients underwent a complete clinical examination including measurement of best corrected visual acuity (VA), slit lamp examination, tonometry, and funduscopy using a 78 diopter lens (Volk Optical, Mentor, Ohio, USA). In macular hole patients, we additionally performed optical coherence tomography (OCT) (Stratus-OCT, Carl Zeiss Meditec, Jena, Germany), Goldmann perimetry, multifocal electroretinogram (ERG) and fundus photographs. Patients were seen one day before surgery and then in six weeks intervals. Postoperatively, ERG and Goldmann perimetry were performed at the six weeks follow-up visit and were not repeated if unremarkable. […]
The dye was applied as follows: During pars plana vitrectomy for a macular hole a fluid air-exchange was performed prior to dye injection to achieve a maximum dye concentration on the retinal surface. […] The staining characteristics were then evaluated by the surgeon.

[1] = test system: anterior segment of the eye; conditions: animals, dye exposure of seven days, cited from earlier work
primary RPE cells = assay: MTT assay, primary RPE cells; conditions: 0.2% and 0.02% dye, 10 minutes exposure, compared to BSS plus control
Text: In brief, whole eyes were thoroughly cleansed in 0.9% NaCl solution, immersed in 5% polyvinyl pyrrolidone iodine, and rinsed again in the sodiumchloride solution. The anterior segment from each donor eye was removed and the posterior poles were examined with the aid of a binocular stereomicroscope to confirm the absence of gross retinal disease. Next, the neural retinas were carefully peeled away from the RPE-choroid-sclera using fine forceps. The eye cup was rinsed with Ca^2+ and Mg^2+-free Hank's balanced salt solution, and filled with 0.25% trypsin (GIBCO, Karlsruhe, Germany) for 30 min at 37° C. The trypsin was carefully aspirated and replaced with Dulbecco's modified eagles medium (DMEM, Biochrom, Berlin, Germany) supplemented with 20% fetal calf serum (FCS, Biochrom). Using a pipette, the media was gently agitated, releasing the RPE into the media by avoiding damage to Bruch's membrane. The RPE cell solution was transferred to a 50 ml flask (Falcon, Wiesbaden, Germany) containing 20 ml of DMEM (Biochrom) supplemented with 20% FCS (Biochrom) and maintained at 37° C. and 5% carbon dioxide. […] After having grown to confluency (100%), primary RPE cells were subcultured and maintained in DMEM (Biochrom) supplemented with 10% FCS (Biochrom) at 37° C. and 5% carbon dioxide. Primary RPE of passage 3-6 and ARPE-19 cells were used for experiments.
For exposure of dyes RPE and ARPE-19 cells were kept for 24 hours under serum free conditions. After washing cells three times with PBS, cells were incubated for 10 minutes with 300 μl of BSS plus containing 0.2% or 0.02% of dye, respectively. […] The dye was then removed by carefully rinsing cells with BSS plus three times. After 24 hours incubation with serum containing media the cell proliferation assay was performed. […]
The tetrazolium dye-reduction assay (MTT; 3-[4,5-dimethylthiazol-2-yl]-2,5-diphenyl tetrazolium bromide;) was used to determine cell survival rate. […] Absorption was measured by a scanning multiwell spectrophotometer at 550 nm (Molecular Probes, Garching, Germany). […]

human lens capsule = assay: Capsulorhexis in patients with white cataracts (Example 2); type: in vivo
Text: In previous experimental studies, we have investigated a number of vital dyes in-vivo and in-vitro in order to evaluate their staining characteristics and safety (C. Haritoglou, A. Yu, W. Freyer, S. G. Priglinger, C. Alge, K. Eibl, C. A. May, U. Welge-Luessen, A. Kampik, “An evaluation of novel vital dyes for intraocular surgery”, Invest Ophthalmol Vis Sci 46 (2005), pp. 3315-22; F. Schuettauf, C. Haritoglou, C. A. May, R. Rejdak, A. Mankowska, W. Freyer, K. Eibl, E. Zrenner, A. Kampik, S. Thaler, “Administration of novel dyes for intraocular surgery: an in vivo toxicity animal study”, Invest Ophthalmol Vis Sci 47 (2006), pp. 3573-8; C. Haritoglou, R. Tadayoni, C. A. May, C. A. Gass, W. Freyer, S. G. Priglinger, A. Kampik, “Short-term in vivo evaluation of novel vital dyes for intraocular surgery”, Retina 26 (2006), pp. 673-8). […] Prior to the application in humans, the toxicity of bromphenol blue had been thoroughly investigated in experimental settings including ex-vivo cell culture models and in-vivo animal studies with intraocular exposure times of up to seven days (C. Haritoglou, A. Yu, W. Freyer, S. G. Priglinger, C. Alge, K. Eibl, C. A. May, U. Welge-Luessen, A. Kampik, “An evaluation of novel vital dyes for intraocular surgery”, Invest Ophthalmol Vis Sci 46 (2005), pp. 3315-22; F. Schuettauf, C. Haritoglou, C. A. May, R. Rejdak, A. Mankowska, W. Freyer, K. Eibl, E. Zrenner, A. Kampik, S. Thaler, “Administration of novel dyes for intraocular surgery: an in vivo toxicity animal study”, Invest Ophthalmol Vis Sci 47 (2006), pp. 3573-8; C. Haritoglou, R. Tadayoni, C. A. May, C. A. Gass, W. Freyer, S. G. Priglinger, A. Kampik, “Short-term in vivo evaluation of novel vital dyes for intraocular surgery”, Retina 26 (2006), pp. 673-8). […] The data obtained from these toxicity studies underlined the high biocompatibility of bromphenol blue. Bromphenol blue (C19H10Br4O5S, FW 670) has been used in the past as a vital stain to probe the blood-brain barrier and as a protein stain and as a pH indicator. In the present example, we describe experience using bromphenol blue to stain the human lens capsule in patients with white cataracts. This investigation was approved by the local ethics committee and the Institutional Review Board (IRB). Written informed consent was obtained from all patients prior to surgery.
Cataract formation was due to ocular trauma (n=2), uveitis (n=1) and unknown cause (n=2). Mean age was 59 years. All patients underwent a complete clinical examination before surgery. B-scan ultrasound of the globe was performed to rule out intraocular pathologies such as tumors or retinal detachments. Bromphenol blue powder was dissolved and diluted using BSS plus (balanced salt solution; Alcon Laboratories Inc., Fort Worth, Tex, USA) and sterilized using a 0.22 μm syringe filter. We used dye concentrations of approximately 0.1% (310 mOsm, pH 7.6). Five consecutive patients were included into this preliminary series of patients, three female and two male. Visual acuity was 20/400 or below before surgery and increased to 20/50 (mean) postoperatively. The dye was either injected into the air-filled (n=3) anterior chamber and carefully removed by injection of viscoelastic material (FIG. 7) immediately after injection or injected after having filled the anterior chamber with viscoelastic material (n=2) without prior air injection. In the latter case, the dye was evenly and gently distributed on the lens surface using the cannula and excessive dye was removed after completion of capsulorhexis (approximately one minute after application).

[2] = approximately 0.1% dye, white cataract patients

O=S1(=O)OC(c2cc(Br)c(O)c(Br)c2)(c2cc(Br)c(O)c(Br)c2)c2ccccc21 [Bromophenol blue, Bromophenole blue]
identification of peripheral vitreous remnants at the vitreous base and retinal breaks (vitreous; 0.2%, injected onto PFCL bubble): helped to identify peripheral remnants of vitreous
reattachment of the retina (vitreous; in vivo): could be achieved in all cases
clinical examinations: signs of inflammatory responses or toxicity in the anterior segment ([1]; also higher dye concentrations): did not reveal any signs of inflammatory responses or toxicity
histological abnormalities following enucleation [1]: no histological abnormalities
cell survival of primary RPE cells (MTT) (primary RPE cells): no influence on cell survival
contrast between the white lens and the stained lens capsule (human lens capsule; all patients): excellent contrast
visual acuity before surgery (human lens capsule; [2]): 20/400
visual acuity postoperatively (mean) (human lens capsule; [2]): 20/50
staining of the anterior lens capsule (human lens capsule; approximately 0.1%, both injection techniques): predictable and uniform staining
complications such as corneal edema, inflammation or decrease of corneal endothelial cells (human lens capsule; follow-up up to five months postoperatively): no complications noted
penetration of the lens capsule by the dye (human lens capsule; human, in vivo): did not penetrate the lens capsule
unwanted staining of other tissues such as the iris or the corneal endothelium (human lens capsule; human, in vivo): no unwanted staining of other tissues
residual dye on the anterior lens capsule rim or any other ocular tissue (human lens capsule; one day postoperatively): no residual dye was detected
